Experimental data taken from the NIST ThermoML archive (doi:10.1021/je800348s).
Numbers after ± are expanded uncertainties.

Experiment: xn = mol fraction of the nth substance listed
Conditions: 101 kPa, Liquid; for mass density: Vibrating tube method

C1C[C@@H]2[C@H]3CC[C@H](C3)[C@@H]2C1 [exo-tetrahydrodicyclopentadiene] + CCCCCCCC
Conditions	mass density, 293.15 K [kg/m3]	mass density, 298.15 K [kg/m3]	mass density, 303.15 K [kg/m3]	mass density, 313.15 K [kg/m3]	viscosity, 293.15 K [mPa·s]	viscosity, 298.15 K [mPa·s]	viscosity, 303.15 K [mPa·s]	viscosity, 313.15 K [mPa·s]
x2 = 0	935.2 ± 8	931.4 ± 8	927.7 ± 8	922.2 ± 8	3.064 ± 0.077	2.74 ± 0.069	2.514 ± 0.063	2.27 ± 0.057
x2 = 0.117	906.1 ± 8	901 ± 8	898.5 ± 8	893.5 ± 8	2.353 ± 0.06	2.109 ± 0.053	1.945 ± 0.049	1.769 ± 0.045
x2 = 0.2275	879.1 ± 8	874.5 ± 8	871.8 ± 8	866.6 ± 8	1.836 ± 0.047	1.665 ± 0.042	1.553 ± 0.039	1.421 ± 0.036
x2 = 0.3384	852.4 ± 8	848.1 ± 8	845.4 ± 8	839.8 ± 8	1.47 ± 0.037	1.351 ± 0.034	1.272 ± 0.032	1.166 ± 0.03
x2 = 0.4431	827.7 ± 8	823.6 ± 8	820.7 ± 8	814.9 ± 8	1.216 ± 0.031	1.12 ± 0.029	1.056 ± 0.027	0.9677 ± 0.025
x2 = 0.5439	804.2 ± 8	800.3 ± 8	797.2 ± 8	791 ± 8	1.027 ± 0.027	0.9508 ± 0.025	0.8917 ± 0.023	0.8212 ± 0.022
x2 = 0.6417	781.8 ± 8	778 ± 8	774.8 ± 8	768.3 ± 8	0.8793 ± 0.023	0.8194 ± 0.022	0.7691 ± 0.02	0.7085 ± 0.019
x2 = 0.7361	760.4 ± 8	756.6 ± 8	753.2 ± 8	746.4 ± 8	0.7663 ± 0.02	0.7198 ± 0.019	0.6752 ± 0.018	0.6197 ± 0.017
x2 = 0.8265	740.3 ± 8	736.5 ± 8	732.9 ± 8	725.6 ± 8	0.6722 ± 0.018	0.6345 ± 0.017	0.5929 ± 0.016	0.5424 ± 0.015
x2 = 0.9143	721.1 ± 8	717.1 ± 8	713.3 ± 8	705.6 ± 8	0.5988 ± 0.016	0.5681 ± 0.016	0.5302 ± 0.015	0.4839 ± 0.014

C1C[C@@H]2[C@H]3CC[C@H](C3)[C@@H]2C1 [exo-tetrahydrodicyclopentadiene] + CCCCCCCCCC
Conditions	mass density, 293.15 K [kg/m3]	mass density, 298.15 K [kg/m3]	mass density, 303.15 K [kg/m3]	mass density, 313.15 K [kg/m3]	viscosity, 293.15 K [mPa·s]	viscosity, 298.15 K [mPa·s]	viscosity, 303.15 K [mPa·s]	viscosity, 313.15 K [mPa·s]
x2 = 0	935.2 ± 8	931.4 ± 8	927.7 ± 8	922.2 ± 8	3.064 ± 0.077	2.74 ± 0.069	2.514 ± 0.063	2.27 ± 0.057
x2 = 0.095	912.7 ± 8	907.5 ± 8	905.4 ± 8	900.2 ± 8	2.631 ± 0.066	2.339 ± 0.059	2.191 ± 0.055	2.006 ± 0.051
x2 = 0.1934	890 ± 8	885.1 ± 8	882.8 ± 8	877.8 ± 8	2.26 ± 0.057	1.996 ± 0.05	1.889 ± 0.047	1.741 ± 0.044
x2 = 0.2908	868.3 ± 8	863.7 ± 8	861.2 ± 8	856.3 ± 8	1.964 ± 0.05	1.728 ± 0.044	1.638 ± 0.041	1.53 ± 0.039
x2 = 0.3902	846.8 ± 8	842.5 ± 8	839.8 ± 8	834.8 ± 8	1.717 ± 0.043	1.521 ± 0.038	1.441 ± 0.036	1.334 ± 0.034
x2 = 0.4893	826 ± 8	822 ± 8	819 ± 8	814 ± 8	1.525 ± 0.039	1.362 ± 0.034	1.287 ± 0.032	1.214 ± 0.031
x2 = 0.6147	800.7 ± 8	796.9 ± 8	793.7 ± 8	788.4 ± 8	1.348 ± 0.034	1.194 ± 0.03	1.143 ± 0.029	1.101 ± 0.028
x2 = 0.6905	786 ± 8	782.3 ± 8	779 ± 8	773.3 ± 8	1.245 ± 0.032	1.102 ± 0.028	1.058 ± 0.027	1.032 ± 0.026
x2 = 0.7895	767.4 ± 8	763.7 ± 8	760.3 ± 8	754.2 ± 8	1.13 ± 0.029	1.009 ± 0.026	0.9726 ± 0.025	0.9345 ± 0.024
x2 = 0.8952	748.2 ± 8	744.6 ± 8	740.9 ± 8	734.3 ± 8	1.032 ± 0.026	0.9181 ± 0.024	0.8852 ± 0.023	0.8537 ± 0.022
